Data from patent publication US11058688B2, “Imidazopiperazine inhibitors of transcription activating proteins” (Board of Regents, The University of Texas System, priority 2018, dated 2021).
pIC50: −log10 of the molar value.

How the values were obtained:
[1] = target: GST-CBP(1081-1197) bromodomain (Homo sapiens (Human), UniProt Q92793); experiment: CBP AlphaScreen Assay; details: binding to biotin-H4(1-21) Ac-K5/8/12/16 peptide
In short: (§1)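 IC50 values derived by variable-slope dose-response fit between negative and DMSO control signals. AlphaScreen signal reports bromodomain association with an H4(1-21) peptide acetylated at K5, K8, K12 and K16.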

BRD4(49-170) bromodomain = BRD4(49-170) bromodomain (Homo sapiens (Human), UniProt O60885); experiment: BRD4 AlphaScreen Assay; details: binding to biotin-H4(1-21) Ac-K5/8/12/16 peptide
In short: as §1

Chain of GST-CBP(1081-1197) bromodomain (Q92793 1081-1197): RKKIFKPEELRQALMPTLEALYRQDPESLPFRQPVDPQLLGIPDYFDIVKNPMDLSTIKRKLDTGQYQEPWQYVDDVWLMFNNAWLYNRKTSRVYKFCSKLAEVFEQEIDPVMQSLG

| Structure (SMILES) | pIC50 [1] | pIC50 (BRD4(49-170) bromodomain) |
| --- | --- | --- |
| CC(=O)N1CCn2c(C3CC3)nc(N3CCCc4cc(-c5ccc(C(N)=O)cc5)ccc43)c2C1 [Example 35, 4-(1-(7-Acetyl-3-cyclopropyl-5,6,7,8-tetrahydroimidazo[1,5-a]pyrazin-1-yl)-1,2,3,4-tetrahydroquinolin-6-yl)benzamide] | 7.10 | < 4.60 |
| CC(=O)N1CCn2c(C3CC3)nc(-c3ccc4c(cnn4C)c3)c2C1 [Example 43, 1-(3-cyclopropyl-1-(1-methyl-1H-indazol-5-yl)-5,6-dihydroimidazol[1,5-a]pyrazin-7(8H)-yl)ethan-1-one] | 5.50 | < 4.60 |
| CNC(=O)c1ccc(-c2cc3cccc(-c4nc(C5CC5)n5c4CN(C(=O)NC)CC5)c3cn2)cn1 [Example 17, 3-Cyclopropyl-N-methyl-1-(3-(6-(methylcarbamoyl)pyridin-3-yl)isoquinolin-8-yl)-5,6-dihydroimidazo[1,5-a]pyrazine-7(8H)-carboxamide] | 9.00 | 5.29 |
| CNC(=O)N1CCn2c(C3CCC(F)(F)CC3)nc(-c3cccc4cc(-c5cnc(C)s5)ncc34)c2C1 [Example 97, 3-(4,4-difluorocyclohexyl)-N-methyl-1-(3-(2-methylthiazol-5-yl)isoquinolin-8-yl)-5,6-dihydroimidazo[1,5-a]pyrazine-7(8H)-carboxamide] | 9.00 | 5.48 |
| CNC(=O)N1CCn2c(C3CC(F)(F)C3)nc(-c3cccc4cc(C5CCOCC5)ncc34)c2C1 [Example 85, 3-(3,3-difluorocyclobutyl)-N-methyl-1-(3-(tetrahydro-2H-pyran-4-yl)isoquinolin-8-yl)-5,6-dihydroimidazo[1,5-a]pyrazine-7(8H)-carboxamide] | 7.82 | 4.74 |
| CNC(=O)N1CCn2c(C3CC3)nc(-c3c(F)ccc4cc(-c5cnc(C)s5)ncc34)c2C1 [Example 22, 3-Cyclopropyl-1-(7-fluoro-3-(2-methylthiazol-5-yl)isoquinolin-8-yl)-N-methyl-5,6-dihydroimidazo[1,5-a]pyrazine-7(8H)-carboxamide] | 8.52 | 5.15 |
| CC(=O)N1CCn2c(C3CC3)nc(N3CCCc4cc(-c5cncc(S(C)(=O)=O)c5)ccc43)c2C1 [Example 107, 1-(3-cyclopropyl-1-(6-(5-(methylsulfonyl)pyridin-3-yl)-3,4-dihydroquinolin-1(2H)-yl)-5,6-dihydroimidazo[1,5-a]pyrazin-7(8H)-yl)ethan-1-one] | 6.29 | < 4.60 |
| CNC(=O)N1CCn2c(C3CC3)nc(-c3cccc4cc(C5CCOCC5)ncc34)c2C1 [Example 21, 3-Cyclopropyl-N-methyl-1-(3-(tetrahydro-2H-pyran-4-yl)isoquinolin-8-yl)-5,6-dihydroimidazo[1,5-a]pyrazine-7(8H)-carboxamide] | 7.70 | < 4.60 |
| CC(=O)N1CCn2c(Cl)nc(-c3ccc4c(c3)c(-c3cnn(C)c3)nn4C)c2C1 [Example 32, 1-(3-Chloro-1-(1-methyl-3-(1-methyl-1H-pyrazol-4-yl)-1H-indazol-5-yl)-5,6-dihydroimidazo[1,5-a]pyrazin-7(8H)-yl)ethan-1-one] | 6.36 | < 5.00 |
| CNC(=O)N1CCn2c(C3CC(F)(F)C3)nc(-c3c(F)ccc4cc(-c5cn(C)nc5C)ncc34)c2C1 [Example 77, 3-(3,3-difluorocyclobutyl)-1-(3-(1,3-dimethyl-1H-pyrazol-4-yl)-7-fluoroisoquinolin-8-yl)-N-methyl-5,6-dihydroimidazo[1,5-a]pyrazine-7(8H)-carboxamide] | 7.35 | < 4.60 |
| CNC(=O)N1CCn2c(C3CCOCC3)nc(-c3cccc4cc(N5CCOCC5)ncc34)c2C1 [Example 63, N-methyl-1-(3-morpholinoisoquinolin-8-yl)-3-(tetrahydro-2H-pyran-4-yl)-5,6-dihydroimidazo[1,5-a]pyrazine-7(8H)-carboxamide] | 7.85 | 4.63 |
| CC(=O)N1CCn2c(C3CC3)nc(-c3ccc4c(c3)c(-c3cnn(C)c3)nn4C)c2C1 [Example 44, 1-(3-cyclopropyl-1-(1-methyl-3-(1-methyl-1H-pyrazol-4-yl)-1H-indazol-5-yl)-5,6-dihydroimidazo[1,5-a]pyrazin-7(8H)-yl)ethan-1-one] | 7.33 | 4.92 |

Further compounds by rising pIC50 [1], results first:

| pIC50 [1] | pIC50 (BRD4(49-170) bromodomain) | Structure (SMILES) |
| --- | --- | --- |
| 6.54 | < 4.60 | CC(=O)N1CCn2c(C3CCS(=O)(=O)CC3)nc(-c3ccc4c(c3)c(-c3cnn(C)c3)nn4C)c2C1 [Example 14, 1-[3-(1,1-Dioxothian-4-yl)-1-[1-methyl-3-(1-methylpyrazol-4-yl)indazol-5-yl]-6,8-dihydro-5H-imidazo[1,5-a]pyrazin-7-yl]ethanone] |
| 6.71 | 5.46 | CC(=O)N1CCn2c(C3CC3)nc(N3CCCc4cc(-c5ccc(=O)n(C)c5)ccc43)c2C1 [Example 113, 5-(1-(7-acetyl-3-cyclopropyl-5,6,7,8-tetrahydroimidazo[1,5-a]pyrazin-1-yl)-1,2,3,4-tetrahydroquinolin-6-yl)-1-methylpyridin-2(1H)-one] |
| 7.27 | 4.77 | CNC(=O)N1CCn2c(C3CC3)nc(-c3c(F)ccc4cc(-c5cn(C)nc5C)ncc34)c2C1 [Example 72, 3-cyclopropyl-1-(3-(1,3-dimethyl-1H-pyrazol-4-yl)-7-fluoroisoquinolin-8-yl)-N-methyl-5,6-dihydroimidazo[1,5-a]pyrazine-7(8H)-carboxamide] |
| 7.80 | 4.84 | CNC(=O)N1CCn2c(C3CC3)nc(-c3cccc4nc(-c5cnn(C)c5)ncc34)c2C1 [Example 37, 3-Cyclopropyl-N-methyl-1-(2-(1-methyl-1H-pyrazol-4-yl)quinazolin-5-yl)-5,6-dihydroimidazo[1,5-a]pyrazine-7(8H)-carboxamide] |
| 8.40 | 4.92 | CNC(=O)N1CCn2c(C3CCC(F)(F)CC3)nc(-c3cccc4cc(C5CCOCC5)ncc34)c2C1 [Example 84, 3-(4,4-difluorocyclohexyl)-N-methyl-1-(3-(tetrahydro-2H-pyran-4-yl)isoquinolin-8-yl)-5,6-dihydroimidazo[1,5-a]pyrazine-7(8H)-carboxamide] |
| 8.40 | 4.64 | CNC(=O)N1CCn2c(C3CCOCC3)nc(-c3cccc4nc(-c5cnn(C)c5)c(C#N)cc34)c2C1 [Example 64, 1-(3-cyano-2-(1-methyl-1H-pyrazol-4-yl)quinolin-5-yl)-N-methyl-3-(tetrahydro-2H-pyran-4-yl)-5,6-dihydroimidazo[1,5-a]pyrazine-7(8H)-carboxamide] |
| 8.70 | 5.16 | CNC(=O)N1CCn2c(C3CCOCC3)nc(-c3c(F)ccc4cc(-c5cnc(C)s5)ncc34)c2C1 [Example 89, 1-(7-fluoro-3-(2-methylthiazol-5-yl)isoquinolin-8-yl)-N-methyl-3-(tetrahydro-2H-pyran-4-yl)-5,6-dihydroimidazo[1,5-a]pyrazine-7(8H)-carboxamide] |
| 9.00 | 5.46 | CNC(=O)N1CCn2c(C3CCOCC3)nc(-c3cccc4cc(-c5cnc(C)s5)ncc34)c2C1 [Example 95, N-methyl-1-(3-(2-methylthiazol-5-yl)isoquinolin-8-yl)-3-(tetrahydro-2H-pyran-4-yl)-5,6-dihydroimidazo[1,5-a]pyrazine-7(8H)-carboxamide] |
